Series [1] has as its system Streptococcus pyogenes (Isolate ID ATCC 51339). Put plainly: Antibacterial activity, MIC, S. pyogenes. It counts as cell-based. The following applies: Streptococcus pyogenes, ATCC51339, Gram positive strain; broth microdilution or agar dilution. The method in brief: (§1)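 MICs determined by broth microdilution or agar dilution according to CLSI guidelines (M7-A7).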
A general note: In broth dilution the organism is exposed to a series of concentrations in liquid medium.

The nature of series [2]: Pharmacokinetic assay, IV and oral PK profile, rat. It counts as in vivo. To be noted: plasma; for bioavailability: [AUCoral/AUCiv]×100%, 3 mg/kg, read-out: F (%) bioavailability. The method, then: (§2) Pharmacokinetic Assays: Determination of PK Profile
(§3) The pharmacokinetic profiles of compounds were determined by measuring the compound concentration in plasma by LC/MS/MS following a single intravenous or peroral administration of the compounds at a dose of 3 mg/kg. The concentrations described are the mean plasma concentrations at each time point from three animals. Intravenous dose formulation was administered as a single bolus dose through the tail vein. Oral dose formulation was administered to animals by an oral gavage needle. In both cases the dose volume was 5.0 mL/kg. Blood was collected from rats using a jugular vein catheter and from anesthetized mice through a capillary guided into the retro-orbital plexus. The collected blood was centrifuged to obtain plasma and the compounds extracted into methanol prior to determining the compound concentration by LC/MS/MS. The results for selected compounds of the invention are shown in FIGS. 2 to 8 where the X axis denotes time (hours) and the Y axis denotes plasma concentration (ng/mL). The Cmaxoral (μg/mL), AUCiv (μg·hr/mL), AUCoral (μg.hr/mL) and F(%) values are provided in the following table where Cmaxoral is the maximum oral concentration, AUC is area under the curve for intraveneous (IV) and oral and F (%) represents compound bioavailability as calculated by [AUCoral/AUCiv]×100%.

Series [3] concerns Enterococcus faecalis (Isolate ID ATCC 29212). Put plainly: Antibacterial activity, MIC, E. faecalis. It counts as cell-based. To be noted: Enterococcus faecalis, ATCC29212; Gram positive strain; broth microdilution or agar dilution. The method in brief:
as §1

Series [4] relates to Staphylococcus aureus (Isolate ID ATCC 29213). The series is described as follows: Antibacterial activity, MIC, S. aureus. To be noted: Staphylococcus aureus, ATCC29213, Gram positive strain; broth microdilution or agar dilution. It counts as cell-based. In short, it runs like this: as §1
The nature of series [5]: Pharmacokinetic assay, IV and oral PK profile, mouse. The format is in vivo. The following applies: plasma; for bioavailability: [AUCoral/AUCiv]×100%, 3 mg/kg, read-out: F (%) bioavailability. The procedure:
as §2, §3

The nature of the next series: physchem. The following applies: pH 7.4, aqueous buffer, kinetic from dmso stock. In short, it runs like this: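 DMSO doubling dilutions were diluted twenty-fold into 100 mM citrate (pH 4), PBS (pH 7.4) or carbonate-bicarbonate (pH 9). After 24 h equilibration at room temperature, absorbance was read at 620 nm. The reported value is the highest concentration without measurable precipitate.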

Series [6] concerns Haemophilus influenzae (Isolate ID ATCC 49247). Put plainly: Antibacterial activity, MIC, H. influenzae. It counts as cell-based. To be noted: Haemophilus influenzae, ATCC49247; Gram negative strain; broth microdilution or agar dilution. The method in brief:
as §1

Series [7] concerns the target T1, Gyrase enzyme (A2B2 complex from Staphylococcus aureus) (UniProt P0A0K8).
T1 construct: 2 mU/μl Gyrase enzyme (A2B2 complex from Staphylococcus aureus); Alternatively
The series is described as follows: Gyrase ATPase assay (S. aureus enzyme). The format is biochemical. The procedure: On-Target Enzyme Assay: Determination of Gyrase ATPase Activity
Gyrase converts ATP into ADP and inorganic phosphate. The released phosphate can be detected by the addition of malachite green solution and measured by monitoring the increase in absorbance at 600 nm. The ATPase assay is carried out in a buffer containing 2 mU/μl Gyrase enzyme (A2B2 complex from Staphylococcus aureus), 0.08 mg/ml double-stranded DNA, 8 mM HEPES.KOH pH 7.6, 100 mM K glutamate, 2 mM Mg acetate, 2 mM DTT, 0.01 mg/ml BSA, and 5% DMSO solution containing the inhibitor. Alternatively, the ATPase assay is carried out in a buffer containing 4.8 μg/mL Gyrase enzyme (A2B2 complex from Escherichia coli), 0.08 μg/mL ssDNA, 35 mM Tris pH 7.5, 24 mM KCl, 2 mM MgCl2, 6.5% Glycerol, 2 mM DTT, 1.8 mM Spermidine, 0.5 mg/mL BSA and 5% DMSO solution containing the inhibitor. The reaction is started by adding ATP to a final concentration of 1 mM and allowed to incubate at 30° C. for 60 minutes. The reaction is stopped by adding […] of malachite green solution (0.034% malachite green, 10 mM ammonium molybdate, 1 M HCl, 3.4% ethanol, 0.01% tween 20). Colour is allowed to develop for 5 minutes and the absorbance at 600 nm is measured spectrophotometrically. The IC50 values are determined from the absorbance readings using no compound and no enzyme controls.

Setting [8] is: po, single peroral dose 3 mg/kg, read-out: AUCoral.
Setting [9] is: single intravenous dose 3 mg/kg, read-out: AUCiv.

The bioavailability is dose-corrected exposure relative to a reference, in per cent. What is called solubility is the concentration that dissolves in the medium under given conditions. For orientation: IC50 means the concentration that inhibits the measured activity by half.

Each structure is given as a SMILES string. Values after ≈ are worked out from the molar mass of the structure shown. Like-named read-outs stand apart in the source and are kept apart here. Bounds are passed on as bounds.

T1 sequence (P0A0K8 whole entry, one chain of several): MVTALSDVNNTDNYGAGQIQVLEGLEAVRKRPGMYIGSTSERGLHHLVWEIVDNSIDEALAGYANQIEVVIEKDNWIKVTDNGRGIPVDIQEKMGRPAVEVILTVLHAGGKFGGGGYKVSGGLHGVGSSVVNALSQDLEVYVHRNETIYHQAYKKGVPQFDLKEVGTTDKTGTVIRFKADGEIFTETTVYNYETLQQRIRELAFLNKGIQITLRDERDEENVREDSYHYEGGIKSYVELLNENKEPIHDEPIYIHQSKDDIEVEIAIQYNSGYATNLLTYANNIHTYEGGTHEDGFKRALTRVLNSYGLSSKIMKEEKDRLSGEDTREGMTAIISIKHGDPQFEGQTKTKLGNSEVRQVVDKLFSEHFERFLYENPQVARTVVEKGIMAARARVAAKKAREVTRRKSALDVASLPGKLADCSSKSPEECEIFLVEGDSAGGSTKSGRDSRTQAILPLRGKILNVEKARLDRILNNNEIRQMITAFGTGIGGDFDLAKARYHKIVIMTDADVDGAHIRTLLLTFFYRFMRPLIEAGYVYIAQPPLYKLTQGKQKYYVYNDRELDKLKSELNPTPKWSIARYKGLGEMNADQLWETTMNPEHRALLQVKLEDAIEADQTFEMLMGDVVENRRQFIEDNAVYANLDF

In the case of `CCNC(=O)Nc1nc2cc(-c3cnc(N4CCC(CC)(C(=O)O)CC4)nc3)cc(-c3ccccn3)c2s1` [Compound 98], the MIC is ≤ 0.25 µg/mL in series [1], ≤ 0.25 µg/mL in series [3], ≤ 0.25 µg/mL in series [4] and 1 to 16 µg/mL (≈ 1.88 to 30.1 µM) in series [6]. The values for the bioavailability in series [2] (po) and in series [5] (po) were 80.4% and 87%, respectively. The AUC in series [2] (setting [8]) worked out at 22200 ng·h/mL; in series [2] (setting [9]) it was 27700 ng·h/mL; in series [5] (setting [8]) it was 12500 ng·h/mL; in series [5] (setting [9]), 14300 ng·h/mL. In addition, the Cmaxoral was 3500 ng/mL in series [2] (single peroral dose 3 mg/kg) and 6100 ng/mL in series [5] (single peroral dose 3 mg/kg). The results for the solubility at 24 h in the series “physchem” (Solubility (pH 7.4)) and in the series “physchem” (Solubility Range) were ≥ 800 µg/mL and > 800 µg/mL, respectively.

As to `C=CCC1(C(=O)O)CCN(c2ncc(-c3cc(-c4ccccn4)c4sc(NC(=O)NCC)nc4c3)cn2)CC1` [Compound 136], the MIC in series [1] was ≤ 0.25 µg/mL; in series [3] it was ≤ 0.25 µg/mL; in series [4] it was ≤ 0.25 µg/mL; in series [6], 1 to 16 µg/mL (≈ 1.84 to 29.4 µM). In addition, the figures for the bioavailability in series [2] (po) and in series [5] (po) were 95.9% and 83%, respectively. For the same molecule, the AUC in series [2] (setting [8]) was 34800 ng·h/mL; in series [2] (setting [9]), 36300 ng·h/mL; in series [5] (setting [8]), 16500 ng·h/mL; in series [5] (setting [9]), 20000 ng·h/mL. The values for the Cmaxoral in series [2] (single peroral dose 3 mg/kg) and in series [5] (single peroral dose 3 mg/kg) were 5500 ng/mL and 4400 ng/mL, respectively. Besides, the solubility at 24 h in the series “physchem” (Max Solubility) was ≥ 800 µg/mL; in the series “physchem” (Solubility (pH 7.4)), ≥ 800 µg/mL; in “physchem” (Solubility Range), > 800 µg/mL; in the series “physchem” (Solubility Range (maximum solubility)), > 800 µg/mL.

Take `CCNC(=O)Nc1nc2cc(-c3nsc(N4CCC(CC)(C(=O)O)CC4)n3)cc(-c3ccccn3)c2s1` [Compound 232, 4-ethyl-1-(3-{2-[(ethylcarbamoyl)amino]-7-(pyridin-2-yl)-1,3-benzothiazol-5-yl}-1,2,4-thiadiazol-5-yl)piperidine-4-carboxylic acid]: the MIC in series [1] is > 16 µg/mL; in series [4] it was 1 to 16 µg/mL (≈ 1.86 to 29.8 µM); in series [6], > 16 µg/mL. For the same molecule, in series [7] (read-out: Gyrase ATPase activity (IC50); enzyme source (S. aureus or E. coli) not given; 1 mM ATP, 30° C., 60 minutes), the IC50 is 930 nM.

With `CCNC(=O)Nc1nc2cc(-c3cnc(N4CCC(CC)(C(=O)OCC)CC4)nc3)cc(-c3cnc(N4CCC(CC)(C(=O)OCC)CC4)nc3)c2o1` [Compound 234, Diethyl 1,1′-({2-[(ethylcarbamoyl)amino]-1,3-benzoxazole-5,7-diyl}dipyrimidine-5,2-diyl)bis(4-ethylpiperidine-4-carboxylate)], the MIC in series [1] and in series [4] was > 16 µg/mL each time. The IC50 in series [7] (enzyme source (S. aureus or E. coli) not given; 1 mM ATP, 30° C., 60 minutes; read-out: Gyrase ATPase activity (IC50)) is > 1370 nM.

The record behind these values is patent US9181234B2, “Antibacterial compounds” (priority 2010, dated 2015).
